Measured values reported in publication PMC12042115 (mLife, 2025).
Where two headings read alike, the source gives them in different places.

System: wild‐type BCG cells
Type: cell-based, M. bovis BCG
Conditions: for Mean Ratio: GDI5755_2d vs DMSO_2d; for Mean Ratio / Mean Ratio (GDI5755_2d vs DMSO_2d): up-regulated; for Mean_Ratio (GDI5755_3d vs DMSO_3d): down-regulated, 3 d; for Mean Ratio (GDI5755_2d vs DMSO_2d): 2d

Q: `O=C(Oc1ccc(Cl)cc1)c1ccc(N2CCOCC2)c([N+](=O)[O-])c1` [GDI‐5755] was tested. Which “Mean Ratio” value (protein A0A0H3M8Y9 Cyclase) did it give?
A: The value was 1.26.

Q: What about the “Mean Ratio” value (protein A0A0H3M9B9 Acetoacetate decarboxylase) of the same molecule?
A: Its value is 1.28.

Q: What about the “Mean Ratio” value (protein A0A0H3M9C3 DUF3039 domain-containing protein) of the same molecule?
A: The value was 1.28.

Q: And the “Mean Ratio” value (protein A0A0H3M9D8 Possible conserved membrane alanine rich protein)?
A: Its value is 1.31.

Q: What about the “Mean Ratio” value (protein A0A0H3M9I1 Probable conserved secreted protein) of the same molecule?
A: Its value is 1.30.

Q: And the “Mean Ratio” value (protein A0A0H3M9I4 Probable membrane glycine and proline rich protein)?
A: Its value is 1.25.

Q: And the “Mean Ratio” value (protein A0A0H3M9K0 Probable penicillin-binding protein pbpA)?
A: Its value is 1.25.

Q: What about the “Mean_Ratio (GDI5755_3d vs DMSO_3d)” value (protein A0A0H3M9N6, BCG_0093 (Rv0062), Glucanase) of the same molecule?
A: The value was 0.7.

Q: What about the “Mean_Ratio (GDI5755_3d vs DMSO_3d)” value (protein A0A0H3M9Q0, BCG_2848c (Rv2828A), COGs COG0840) of the same molecule?
A: Its value is 0.7.

Q: What about the “Mean Ratio” value (protein A0A0H3M9S4 Carrier domain-containing protein) of the same molecule?
A: The value was 1.26.

Q: What about the “Mean Ratio (GDI5755_2d vs DMSO_2d)” value (protein A0A0H3M9U5 Phosphatidate cytidylyltransferase) of the same molecule?
A: The value was 1.38.

Q: And the “Mean_Ratio (GDI5755_3d vs DMSO_3d)” value (protein A0A0H3M9Z8, BCG_2971c (Rv2950c), Probable fatty-acid-CoA ligase fadD29)?
A: The value was 0.7.

Q: And the “Mean Ratio” value (protein A0A0H3M9Z9 Probable conserved transmembrane protein rich in alanine and arginine and proline)?
A: The value was 1.28.

Q: What about the “Mean Ratio” value (protein A0A0H3M143 peptidoglycan glycosyltransferase) of the same molecule?
A: Its value is 1.26.

Q: And the “Mean_Ratio (GDI5755_3d vs DMSO_3d)” value (protein A0A0H3M233, BCG_0693c (Rv0644c), Methoxy mycolic acid synthase 2 mmaA2)?
A: Its value is 0.7.

Q: And the “Mean_Ratio (GDI5755_3d vs DMSO_3d)” value (protein A0A0H3M245, BCG_0704 (Rv0655), Possible ribonucleotide-transport ATP-binding protein ABC transporter mkl)?
A: The value was 0.7.

Q: What about the “Mean Ratio (GDI5755_2d vs DMSO_2d)” value (protein A0A0H3M252 Probable glutamine-binding lipoprotein glnH) of the same molecule?
A: Its value is 1.33.

Q: What about the “Mean Ratio (GDI5755_2d vs DMSO_2d)” value (protein A0A0H3M331 Uncharacterized protein) of the same molecule?
A: The value was 1.34.

Q: And the “Mean_Ratio (GDI5755_3d vs DMSO_3d)” value (protein A0A0H3M363, BCG_0875c (Rv0822c), Cell envelope-associated transcriptional attenuator LytR-CpsA-Psr, subfamily A1)?
A: Its value is 0.752.

Q: And the “Mean_Ratio (GDI5755_3d vs DMSO_3d)” value (protein A0A0H3M469, BCG_1204c (MRA_1152), Probable enoyl-CoA hydratase echA10)?
A: The value was 0.742.

Q: And the “Mean_Ratio (GDI5755_3d vs DMSO_3d)” value (protein A0A0H3M476, BCG_0711c (Rv0662c), Ribbon-helix-helix protein CopG domain-containing protein)?
A: The value was 0.7.

Q: What about the “Mean Ratio” value (protein A0A0H3M482 Conserved transmembrane protein) of the same molecule?
A: Its value is 1.29.

Q: And the “Mean_Ratio (GDI5755_3d vs DMSO_3d)” value (protein A0A0H3M495, BCG_1238c (Rv1175c), Probable NADPH dependent 2,4-dienoyl-CoA reductase fadH)?
A: The value was 0.758.

Q: What about the “Mean Ratio” value (protein A0A0H3M519 Probable conserved lipoprotein) of the same molecule?
A: Its value is 1.28.

Q: What about the “Mean Ratio” value (protein A0A0H3M628 Probable lipoprotein lppP) of the same molecule?
A: The value was 1.31.

Q: And the “Mean Ratio (GDI5755_2d vs DMSO_2d)” value (protein A0A0H3M639 Probable metal cation transporter P-type atpase G ctpG)?
A: Its value is 1.33.

Q: And the “Mean Ratio (GDI5755_2d vs DMSO_2d)” value (protein A0A0H3M660 Conserved membrane protein)?
A: Its value is 1.39.

Q: And the “Mean Ratio” value (protein A0A0H3M672 Sirohydrochlorin cobaltochelatase)?
A: The value was 1.28.

Q: What about the “Mean Ratio” value (protein A0A0H3M707 Probable conserved integral membrane alanine and valine and leucine rich protein) of the same molecule?
A: Its value is 1.26.

Q: And the “Mean_Ratio (GDI5755_3d vs DMSO_3d)” value (protein A0A0H3M735, BCG_2390c (Rv2376c), Low molecular weight antigen cfp2)?
A: Its value is 0.7.

Q: What about the “Mean_Ratio (GDI5755_3d vs DMSO_3d)” value (protein A0A0H3M760, BCG_0066 (Rv0035), Probable fatty-acid-coa ligase fadD34) of the same molecule?
A: The value was 0.7.

Q: And the “Mean Ratio” value (protein A0A0H3M769 Lipid/polyisoprenoid-binding YceI-like domain-containing protein)?
A: The value was 1.28.

Q: What about the “Mean_Ratio (GDI5755_3d vs DMSO_3d)” value (protein A0A0H3M827, BCG_2840c (Rv2821c), CRISPR system Cms endoribonuclease Csm3) of the same molecule?
A: The value was 0.7.

Q: What about the “Mean_Ratio (GDI5755_3d vs DMSO_3d)” value (protein A0A0H3M844, BCG_2251 (Rv2234), Phosphotyrosine protein phosphatase ptpA) of the same molecule?
A: The value was 0.7.

Q: And the “Mean Ratio” value (protein A0A0H3M847 Probable conserved transmembrane alanine rich protein)?
A: The value was 1.26.

Q: What about the “Mean_Ratio (GDI5755_3d vs DMSO_3d)” value (protein A0A0H3M848, BCG_3111 (Rv3086), alcohol dehydrogenase, adhD) of the same molecule?
A: The value was 0.761.

Q: What about the “Mean Ratio (GDI5755_2d vs DMSO_2d)” value (protein A0A0H3M855 Acyl carrier protein) of the same molecule?
A: The value was 1.34.

Q: What about the “Mean Ratio” value (protein A0A0H3M918 Protein-export membrane protein SecF) of the same molecule?
A: Its value is 1.28.

Q: And the “Mean_Ratio (GDI5755_3d vs DMSO_3d)” value (protein A0A0H3M922, BCG_3278c (Rv3249c), Possible transcriptional regulatory protein (Probably tetR-family))?
A: The value was 0.757.

Q: What about the “Mean_Ratio (GDI5755_3d vs DMSO_3d)” value (protein A0A0H3M964, BCG_1004c (Rv0950c), Peptidase M23 domain-containing protein) of the same molecule?
A: Its value is 0.7.

Q: What about the “Mean Ratio” value (protein A0A0H3M969 HNH nuclease domain-containing protein) of the same molecule?
A: The value was 1.26.

Q: What about the “Mean_Ratio (GDI5755_3d vs DMSO_3d)” value (protein A0A0H3M984, BCG_3389c (Rv3323c), Probable moaD-moaE fusion protein moaX) of the same molecule?
A: Its value is 0.756.

Q: And the “Mean Ratio (GDI5755_2d vs DMSO_2d)” value (protein A0A0H3MA04 ATP-dependent zinc metalloprotease FtsH)?
A: The value was 1.34.

Q: And the “Mean_Ratio (GDI5755_3d vs DMSO_3d)” value (protein A0A0H3MA19, BCG_0251 (Rv0214), Probable fatty-acid-CoA ligase fadD4)?
A: Its value is 0.739.

Q: What about the “Mean_Ratio (GDI5755_3d vs DMSO_3d)” value (protein A0A0H3MA36, BCG_3704c (Rv3646c), DNA topoisomerase 1) of the same molecule?
A: The value was 0.7.

Q: What about the “Mean_Ratio (GDI5755_3d vs DMSO_3d)” value (protein A0A0H3MA81, BCG_1461c (Rv1400c), Probable lipase lipH) of the same molecule?
A: The value was 0.751.

Q: What about the “Mean Ratio” value (protein A0A0H3MAA3 Possible conserved membrane protein) of the same molecule?
A: Its value is 1.25.

Q: And the “Mean_Ratio (GDI5755_3d vs DMSO_3d)” value (protein A0A0H3MAA7, BCG_0352 (Rv0312), Conserved hypothetical proline and threonine rich protein)?
A: Its value is 0.739.

Q: What about the “Mean Ratio (GDI5755_2d vs DMSO_2d)” value (protein A0A0H3MAB2 Conserved membrane protein) of the same molecule?
A: The value was 1.33.

Q: What about the “Mean_Ratio (GDI5755_3d vs DMSO_3d)” value (protein A0A0H3MAC6, BCG_0385c (Rv0346c), l-asparagine permease ansP2) of the same molecule?
A: Its value is 0.7.

Q: And the “Mean Ratio (GDI5755_2d vs DMSO_2d)” value (protein A0A0H3MAC8 Possible conserved transmembrane protein)?
A: Its value is 1.38.

Q: What about the “Mean_Ratio (GDI5755_3d vs DMSO_3d)” value (protein A0A0H3MAD2, BCG_0398c (Rv0360c), DUF3151 domain-containing protein) of the same molecule?
A: The value was 0.7.

Q: And the “Mean Ratio” value (protein A0A0H3MAE2 Probable carbon monoxyde dehydrogenase (Medium chain))?
A: Its value is 1.31.

Q: What about the “Mean Ratio” value (protein A0A0H3MAF8 Serine/threonine-protein kinase PknG) of the same molecule?
A: The value was 1.26.

Q: What about the “Mean_Ratio (GDI5755_3d vs DMSO_3d)” value (protein A0A0H3MAI2, BCG_0498 (Rv0458), Probable aldehyde dehydrogenase) of the same molecule?
A: The value was 0.7.

Q: What about the “Mean_Ratio (GDI5755_3d vs DMSO_3d)” value (protein A0A0H3MAI6, BCG_3192 (Rv3168), Aminoglycoside phosphotransferase domain-containing protein) of the same molecule?
A: Its value is 0.7.

Q: And the “Mean_Ratio (GDI5755_3d vs DMSO_3d)” value (protein A0A0H3MAK6, BCG_0543 (Rv0500A), Helix-turn-helix domain-containing protein)?
A: Its value is 0.757.

Q: What about the “Mean_Ratio (GDI5755_3d vs DMSO_3d)” value (protein A0A0H3MAL3, BCG_3212c (Rv3190c), Restriction endonuclease) of the same molecule?
A: Its value is 0.7.

Q: What about the “Mean Ratio” value (protein A0A0H3MAP0 Conserved hypothetical alanine valine rich protein) of the same molecule?
A: Its value is 1.28.

Q: And the “Mean Ratio” value (protein A0A0H3MAW6 Uncharacterized protein)?
A: Its value is 1.27.

Q: And the “Mean Ratio” value (protein A0A0H3MAY5 (BCG_0774) Possible protease IV sppA (Endopeptidase IV))?
A: The value was 1.28.

Q: What about the “Mean_Ratio (GDI5755_3d vs DMSO_3d)” value (protein A0A0H3MB28, BCG_3433c (Rv3361c), Pentapeptide repeat protein MfpA) of the same molecule?
A: Its value is 0.741.

Q: What about the “Mean_Ratio (GDI5755_3d vs DMSO_3d)” value (protein A0A0H3MB50, BCG_3459 (Rv3390), Probable conserved lipoprotein lpqD) of the same molecule?
A: The value was 0.7.

Q: What about the “Mean_Ratio (GDI5755_3d vs DMSO_3d)” value (protein A0A0H3MB93, BCG_3517 (Rv3451), Cutinase) of the same molecule?
A: The value was 0.7.

Q: What about the “Mean_Ratio (GDI5755_3d vs DMSO_3d)” value (protein A0A0H3MB98, BCG_1906c (Rv1870c), Endonuclease) of the same molecule?
A: The value was 0.7.

Q: And the “Mean_Ratio (GDI5755_3d vs DMSO_3d)” value (protein A0A0H3MBC9, BCG_3565c (Rv3501c), Conserved hypothetical integral membrane protein yrbE4A)?
A: The value was 0.7.
